The text below walks through data of publication PMC11014391 (2024).

The subject of experiment [1] is SAM-I^AD (yitJ SAM-I aptamer domain) (RNA, riboswitch) GGGCGUUCUUAUCAAGAGAAGCAGAGGGACUGGCCCGACGAAGCUUCAGCAACCGGUGUAAUGGCGAUCAGCCAUGACCAAGGUGCUAAAUCCAGCAAGCUCGAACAGCUUGGAAGAUAAGAAGCCCCCAAAAAAAAAAAAAAAAAAAAAAAA
The experiment can be described thus: SPR steady state. Particulars: 150 mM NaCl, MgCl2; HBS-N, 10 mM HEPES pH 7.4.

In experiment [2] the test system is SAM-I^1-156 (RNA, riboswitch) GGGAUAUCCGUUCUUAUCAAGAGAAGCAGAGGGACUGGCCCGACGAAGCUUCAGCAACCGGUGUAAUGGCGAUCAGCCAUGACCAAGGUGCUAAAUCCAGCAAGCUCGAACAGCUUGGAAGAUAAGAAGAGACAAAAUCACUGACAAAGUCUUCUUCUUCCCCCAAAAAAAAAAAAAAAAAAAAAAAA
Briefly: SPR steady state. Particulars: 150 mM NaCl, 2 mM MgCl2, HBS-N, 10 mM HEPES pH 7.4, apparent, no switching seen by FASST.

Experiment [3] relates to FMN^1-212 (RNA, riboswitch) GGGAAAAAUAAAUAUUAAAAAUAAUCUUCGGGGCAGGGUGAAAUUCCCGACCGGUGGUAUAGUCCACGAAAGUAUUUGCUUUGAUUUGGUGAAAUUCCAAAACCGACAGUAGAGUCUGGAUGAGAGAAGAAAAGAAAUUUAAGUUUUUUAACUUGUUUUCUACAUUUUAGUAAUCUUACCCGAAUUCUAUAAUUCGGUUUUUUUAUUUUAACUGGCCCCCAAAAAAAAAAAAAAAAAAAAAAAA
Briefly: fluorescence anisotropy switching (FASST), APO probe. Particulars: 150 mM NaCl, 5 mM MgCl2, 350 nM RNA, 5 nM APO-FAM-FMN DNA probe displaced.

Experiment [4] has the same test system. Briefly: SPR. The note with it: 150 mM NaCl, 5 mM MgCl2; HBS-N, 10 mM HEPES pH 7.4; apparent; Table 2 prints 150 ± 180 nM.
Experiment [5] concerns FMN^AD (FMN aptamer domain) (RNA, riboswitch) GGGAUCUUCGGGGCAGGGUGAAAUUCCCGACCGGUGGUAUAGUCCACGAAAGUAUUUGCUUUGAUUUGGUGAAAUUCCAAAACCGACAGUAGAGUCUGGAUGAGAGAAGACCCCCAAAAAAAAAAAAAAAAAAAAAAAA
Briefly: SPR kinetics. Particulars: 150 mM NaCl, MgCl2; HBS-N, 10 mM HEPES pH 7.4; apparent. Background: In SPR one partner is held on a chip, and binding of the other changes the refractive index at the surface.

Experiment [6] concerns SAM-I^AD (yitJ SAM-I aptamer domain) (RNA, riboswitch) GGGCGUUCUUAUCAAGAGAAGCAGAGGGACUGGCCCGACGAAGCUUCAGCAACCGGUGUAAUGGCGAUCAGCCAUGACCAAGGUGCUAAAUCCAGCAAGCUCGAACAGCUUGGAAGAUAAGAAGCCCCCAAAAAAAAAAAAAAAAAAAAAAAA
The experiment can be described thus: ITC. The note with it: 150 mM NaCl, 2 mM MgCl2; 10 mM HEPES pH 7.4, 25 °C; 10 μM RNA.

In experiment [7] the test system is SAM-I^1-156 (RNA, riboswitch) GGGAUAUCCGUUCUUAUCAAGAGAAGCAGAGGGACUGGCCCGACGAAGCUUCAGCAACCGGUGUAAUGGCGAUCAGCCAUGACCAAGGUGCUAAAUCCAGCAAGCUCGAACAGCUUGGAAGAUAAGAAGAGACAAAAUCACUGACAAAGUCUUCUUCUUCCCCCAAAAAAAAAAAAAAAAAAAAAAAA
Briefly: fluorescence anisotropy switching (FASST), APO probe. The note with it: 150 mM NaCl, 2 mM MgCl2; 10 mM HEPES pH 7.4, 37 °C; 75 nM RNA; 50 nM APO-FAM-SAM DNA probe displaced. (In fluorescence polarisation assays a small probe gives low polarisation when free and higher when bound to something large.)

For experiment [8] the test system is unchanged. The experiment can be described thus: native PAGE switching with HOLO-FAM-SAM probe. Particulars: MgCl2; THEM buffer pH 7.5; HOLO-FAM-SAM DNA probe hybridizes.
Experiment [9] has the same test system. The experiment can be described thus: native PAGE switching with APO-FAM-SAM probe. Particulars: MgCl2; THEM buffer pH 7.5; APO-FAM-SAM DNA probe displaced.
Experiment [10] shares this test system. The experiment can be described thus: fluorescence anisotropy switching (FASST), HOLO probe. The note with it: 150 mM NaCl, 2 mM MgCl2; 10 mM HEPES pH 7.4, 37 °C; 350 nM RNA; 50 nM HOLO-FAM-SAM DNA probe hybridizes.
Experiment [11] has the same test system. Briefly: SPR kinetics. Particulars: 150 mM NaCl, MgCl2; HBS-N, 10 mM HEPES pH 7.4; apparent.
Experiment [12] deals with SAM-I riboswitch without spacer and poly(A) tail (RNA, riboswitch) GGGAUAUCCGUUCUUAUCAAGAGAAGCAGAGGGACUGGCCCGACGAAGCUUCAGCAACCGGUGUAAUGGCGAUCAGCCAUGACCAAGGUGCUAAAUCCAGCAAGCUCGAACAGCUUGGAAGAUAAGAAGAGACAAAAUCACUGACAAAGUCUUCUUCUU
Briefly: fluorescence anisotropy switching (FASST), HOLO probe. The note with it: 150 mM NaCl, 2 mM MgCl2; 10 mM HEPES pH 7.4; HOLO-FAM-SAM DNA probe hybridizes.

In experiment [13] the test system is SAM-I^AD (yitJ SAM-I aptamer domain) (RNA, riboswitch) GGGCGUUCUUAUCAAGAGAAGCAGAGGGACUGGCCCGACGAAGCUUCAGCAACCGGUGUAAUGGCGAUCAGCCAUGACCAAGGUGCUAAAUCCAGCAAGCUCGAACAGCUUGGAAGAUAAGAAGCCCCCAAAAAAAAAAAAAAAAAAAAAAAA
The experiment can be described thus: SPR kinetics. Particulars: 150 mM NaCl, MgCl2; HBS-N, 10 mM HEPES pH 7.4; apparent.

Experiment [14] relates to SAM-I^1-156 (RNA, riboswitch) GGGAUAUCCGUUCUUAUCAAGAGAAGCAGAGGGACUGGCCCGACGAAGCUUCAGCAACCGGUGUAAUGGCGAUCAGCCAUGACCAAGGUGCUAAAUCCAGCAAGCUCGAACAGCUUGGAAGAUAAGAAGAGACAAAAUCACUGACAAAGUCUUCUUCUUCCCCCAAAAAAAAAAAAAAAAAAAAAAAA
The experiment can be described thus: native PAGE switching, no probe. Particulars: MgCl2; THEM buffer pH 7.5; 0.5 μM RNA; top band; bottom band 23 ± 9 μM.

Experiment [15] relates to SAM-I riboswitch without spacer and poly(A) tail (RNA, riboswitch) GGGAUAUCCGUUCUUAUCAAGAGAAGCAGAGGGACUGGCCCGACGAAGCUUCAGCAACCGGUGUAAUGGCGAUCAGCCAUGACCAAGGUGCUAAAUCCAGCAAGCUCGAACAGCUUGGAAGAUAAGAAGAGACAAAAUCACUGACAAAGUCUUCUUCUU
The experiment can be described thus: fluorescence anisotropy switching (FASST), APO probe. Particulars: 150 mM NaCl, 2 mM MgCl2; 10 mM HEPES pH 7.4; APO-FAM-SAM DNA probe displaced.

Experiment [16] relates to FMN^1-212 (RNA, riboswitch) GGGAAAAAUAAAUAUUAAAAAUAAUCUUCGGGGCAGGGUGAAAUUCCCGACCGGUGGUAUAGUCCACGAAAGUAUUUGCUUUGAUUUGGUGAAAUUCCAAAACCGACAGUAGAGUCUGGAUGAGAGAAGAAAAGAAAUUUAAGUUUUUUAACUUGUUUUCUACAUUUUAGUAAUCUUACCCGAAUUCUAUAAUUCGGUUUUUUUAUUUUAACUGGCCCCCAAAAAAAAAAAAAAAAAAAAAAAA
The experiment can be described thus: SPR steady state. The note with it: 150 mM NaCl, 5 mM MgCl2; HBS-N, 10 mM HEPES pH 7.4; apparent.

Experiment [17] concerns FMN^AD (FMN aptamer domain) (RNA, riboswitch) GGGAUCUUCGGGGCAGGGUGAAAUUCCCGACCGGUGGUAUAGUCCACGAAAGUAUUUGCUUUGAUUUGGUGAAAUUCCAAAACCGACAGUAGAGUCUGGAUGAGAGAAGACCCCCAAAAAAAAAAAAAAAAAAAAAAAA
Briefly: SPR steady state. The note with it: 150 mM NaCl, MgCl2; HBS-N, 10 mM HEPES pH 7.4.

On to `Nc1ncnc2c1ncn2[C@@H]1O[C@H](C[C@@H](N)CC[C@H](N)C(=O)O)[C@@H](O)[C@H]1O`, for which the KD in experiment [1] was determined as 129 ± 14 µM; in experiment [2] (error exceeds value), 2000 ± 3000 µM.
Molecule `Cc1cc2nc3c(=O)[nH]c(=O)nc-3n(C[C@H](O)[C@H](O)[C@H](O)COP(=O)(O)O)c2cc1C` returned an S50FASST in [3] (10 mM HEPES pH 7.4, 37 °C) of 0.29 ± 0.06 µM. Further, the KD in [4] stood at 0.095 ± 0.05 µM; in [5] it was 0.16 ± 0.012 µM.
In the case of `Nc1ncnc2c1ncn2[C@@H]1O[C@H](CSCC[C@H](N)C(=O)O)[C@@H](O)[C@H]1O`, the KD came out at 195 ± 22 µM in experiment [1] and 46 ± 27 µM in [2].
For `C[S+](CC[C@H](N)C(=O)O)C[C@H]1O[C@@H](n2cnc3c(N)ncnc32)[C@H](O)[C@@H]1O` (some centres unmarked), the KD came out at 0.128 ± 0.027 µM in experiment [6], 0.0101 ± 0.0004 µM in experiment [11] and 0.004 ± 0.002 µM in experiment [13]. The S50FASST in experiment [7] was determined as 19 ± 12 µM; in [10], 1.7 ± 0.4 µM; in experiment [12], 0.19 ± 0.08 µM; in experiment [15] it was 8 ± 3 µM. Moreover, the “S50 NP” value in experiment [8] stood at 1.03 ± 0.08 µM; in experiment [9], 46 ± 44 µM; in experiment [14] it was 6 ± 2 µM.
Molecule `Cc1cc2nc3c(=O)[nH]c(=O)nc-3n(C[C@H](O)[C@H](O)[C@H](O)CO)c2cc1N(C)C` had an S50FASST in experiment [3] (10 mM HEPES pH 7.4, overnight) of 24 ± 20 µM. The KD in experiment [16] amounted to 4.9 ± 0.2 µM; in [17], 2 ± 1 µM.
Molecule `Cc1cc2nc3c(=O)[nH]c(=O)nc-3n(C[C@H](O)[C@H](O)[C@H](O)CO)c2cc1C` came in with an S50FASST in experiment [3] (10 mM HEPES pH 7.4, overnight) of 0.7 ± 0.3 µM. For the same molecule, the KD in experiment [16] came out at 32 ± 11 µM; in [17], 30 ± 18 µM.
